Test results: the NIST ThermoML archive (doi:10.1021/je8007759)

Experiment: xn = mol fraction of the nth substance listed

CC1CCC(=O)O1 (stereo not given) [γ-valerolactone] + O=C=O
mass density [kg/m3], Fluid (supercritical or subcritical phases), Pycnometric method
Conditions | 308.2 K | 313.2 K
7520 kPa, x1 = 0.1 | 928 | –
7560 kPa, x1 = 0.05 | 838 | –
7630 kPa, x1 = 0.01 | 665 | –
7630 kPa, x1 = 0.05 | 842 | –
7640 kPa, x1 = 0.025 | 781 | –
7650 kPa, x1 = 0.01 | 669 | –
7670 kPa, x1 = 0.01 | 673 | –
7670 kPa, x1 = 0.1 | 932 | –
7690 kPa, x1 = 0.01 | 677 | –
7710 kPa, x1 = 0.05 | 845 | –
7710 kPa, x1 = 0.15 | 979 | –
7720 kPa, x1 = 0.01 | 681 | –
7720 kPa, x1 = 0.025 | 786 | –
7750 kPa, x1 = 0.01 | 685 | –
7790 kPa, x1 = 0.01 | 690 | –
7810 kPa, x1 = 0.1 | 935 | –
7820 kPa, x1 = 0.025 | 792 | –
7830 kPa, x1 = 0.01 | 694 | –
7850 kPa, x1 = 0.05 | 850 | –
7870 kPa, x1 = 0.01 | 698 | –
7910 kPa, x1 = 0.01 | 703 | –
7930 kPa, x1 = 0.025 | 798 | –
7970 kPa, x1 = 0.01 | 710 | –
8050 kPa, x1 = 0.01 | 717 | –
8060 kPa, x1 = 0.025 | 804 | –
8110 kPa, x1 = 0.05 | 855 | –
8150 kPa, x1 = 0.01 | 724 | –
8170 kPa, x1 = 0.025 | 809 | –
8200 kPa, x1 = 0.15 | – | 962
8230 kPa, x1 = 0.15 | 982 | –
8300 kPa, x1 = 0.01 | 734 | 547
8310 kPa, x1 = 0.01 | – | 557
8320 kPa, x1 = 0.01 | – | 561
8330 kPa, x1 = 0.01 | – | 565
8340 kPa, x1 = 0.01 | – | 568
8340 kPa, x1 = 0.05 | – | 809
8340 kPa, x1 = 0.1 | 942 | –
8350 kPa, x1 = 0.01 | – | 572
8350 kPa, x1 = 0.025 | 815 | –
8370 kPa, x1 = 0.01 | – | 576
8370 kPa, x1 = 0.025 | – | 726
8380 kPa, x1 = 0.01 | – | 581
8380 kPa, x1 = 0.1 | – | 913
8390 kPa, x1 = 0.01 | – | 589
8400 kPa, x1 = 0.05 | 862 | –
8410 kPa, x1 = 0.01 | – | 592
8410 kPa, x1 = 0.025 | – | 730
8420 kPa, x1 = 0.01 | – | 596
8430 kPa, x1 = 0.01 | – | 602
8440 kPa, x1 = 0.01 | – | 606
8450 kPa, x1 = 0.025 | – | 736
8460 kPa, x1 = 0.01 | 744 | 609
8460 kPa, x1 = 0.05 | – | 814
8470 kPa, x1 = 0.01 | – | 612
8480 kPa, x1 = 0.01 | – | 616
8500 kPa, x1 = 0.01 | – | 619
8510 kPa, x1 = 0.025 | – | 740
8520 kPa, x1 = 0.01 | – | 623
8520 kPa, x1 = 0.1 | – | 916
8530 kPa, x1 = 0.01 | – | 627
8530 kPa, x1 = 0.025 | 822 | –
8550 kPa, x1 = 0.025 | – | 745
8560 kPa, x1 = 0.01 | – | 630
8580 kPa, x1 = 0.01 | – | 634
8580 kPa, x1 = 0.15 | – | 965
8600 kPa, x1 = 0.01 | – | 638
8620 kPa, x1 = 0.025 | – | 750
8630 kPa, x1 = 0.01 | – | 641
8650 kPa, x1 = 0.01 | – | 645
8670 kPa, x1 = 0.01 | 754 | –
8670 kPa, x1 = 0.05 | – | 820
8680 kPa, x1 = 0.01 | – | 649
8680 kPa, x1 = 0.1 | 946 | –
8700 kPa, x1 = 0.025 | 827 | 755
8720 kPa, x1 = 0.01 | – | 653
8750 kPa, x1 = 0.01 | – | 657
8750 kPa, x1 = 0.05 | 869 | –
8760 kPa, x1 = 0.1 | – | 920
8780 kPa, x1 = 0.01 | – | 661
8780 kPa, x1 = 0.025 | – | 760
8810 kPa, x1 = 0.01 | – | 665
8830 kPa, x1 = 0.15 | 985 | –
8850 kPa, x1 = 0.01 | – | 669
8880 kPa, x1 = 0.025 | – | 765
8880 kPa, x1 = 0.05 | – | 826
8890 kPa, x1 = 0.01 | – | 673
8910 kPa, x1 = 0.01 | 765 | –
8940 kPa, x1 = 0.01 | – | 677
8940 kPa, x1 = 0.025 | 833 | –
8960 kPa, x1 = 0.025 | – | 771
8990 kPa, x1 = 0.01 | – | 681
9000 kPa, x1 = 0.1 | – | 923
9040 kPa, x1 = 0.01 | – | 686
9060 kPa, x1 = 0.025 | – | 775
9070 kPa, x1 = 0.15 | – | 969
9100 kPa, x1 = 0.01 | – | 690
9140 kPa, x1 = 0.05 | 875 | –
9150 kPa, x1 = 0.01 | – | 694
9180 kPa, x1 = 0.01 | 775 | –
9180 kPa, x1 = 0.025 | 840 | 781
9180 kPa, x1 = 0.05 | – | 835
9200 kPa, x1 = 0.01 | – | 698
9280 kPa, x1 = 0.01 | – | 703
9280 kPa, x1 = 0.1 | – | 926
9310 kPa, x1 = 0.025 | – | 786
9340 kPa, x1 = 0.01 | – | 708
9380 kPa, x1 = 0.1 | 953 | –
9400 kPa, x1 = 0.15 | 988 | –
9410 kPa, x1 = 0.025 | 845 | –
9430 kPa, x1 = 0.01 | – | 712
9440 kPa, x1 = 0.05 | – | 841
9450 kPa, x1 = 0.025 | – | 792
9500 kPa, x1 = 0.01 | 787 | 717
9510 kPa, x1 = 0.05 | 881 | –
9550 kPa, x1 = 0.1 | – | 929
9590 kPa, x1 = 0.01 | – | 721
9590 kPa, x1 = 0.025 | – | 798
9670 kPa, x1 = 0.15 | – | 972
9680 kPa, x1 = 0.01 | – | 727
9700 kPa, x1 = 0.025 | 852 | –
9710 kPa, x1 = 0.05 | – | 847
9780 kPa, x1 = 0.025 | – | 803
9880 kPa, x1 = 0.01 | – | 736
9880 kPa, x1 = 0.1 | – | 932
9890 kPa, x1 = 0.01 | 798 | –
9970 kPa, x1 = 0.025 | – | 810
9980 kPa, x1 = 0.15 | 991 | –
10000 kPa, x1 = 0.1 | 958 | –
10030 kPa, x1 = 0.05 | – | 852
10120 kPa, x1 = 0.01 | – | 746
10180 kPa, x1 = 0.025 | – | 815
10180 kPa, x1 = 0.1 | – | 936
10310 kPa, x1 = 0.15 | – | 976
10350 kPa, x1 = 0.01 | 810 | –
10370 kPa, x1 = 0.1 | – | 938
10390 kPa, x1 = 0.01 | – | 755
10390 kPa, x1 = 0.05 | – | 859
10400 kPa, x1 = 0.025 | – | 821
10540 kPa, x1 = 0.1 | – | 939
10620 kPa, x1 = 0.15 | – | 978
10630 kPa, x1 = 0.025 | – | 827
10680 kPa, x1 = 0.01 | – | 767
10720 kPa, x1 = 0.15 | 995 | –
10750 kPa, x1 = 0.05 | – | 865
11040 kPa, x1 = 0.1 | 967 | –
11360 kPa, x1 = 0.15 | 999 | –
11550 kPa, x1 = 0.1 | 970 | –
11980 kPa, x1 = 0.15 | 1002 | –
12070 kPa, x1 = 0.1 | 974 | –
12550 kPa, x1 = 0.1 | 978 | –
12950 kPa, x1 = 0.15 | 1006 | –
13110 kPa, x1 = 0.1 | 981 | –
13620 kPa, x1 = 0.15 | 1009 | –
13640 kPa, x1 = 0.1 | 984 | –
14250 kPa, x1 = 0.1 | 989 | –
14410 kPa, x1 = 0.15 | 1013 | –
14770 kPa, x1 = 0.1 | 992 | –
15180 kPa, x1 = 0.15 | 1016 | –
16060 kPa, x1 = 0.15 | 1020 | –
16850 kPa, x1 = 0.15 | 1023 | –

308.2 K, Liquid, high pressure variable cell
Conditions | mass density [kg/m3]
x1 = 0.01 | 663
x1 = 0.025 | 777
x1 = 0.05 | 834
x1 = 0.1 | 920
x1 = 0.15 | 972
